Patent publication US8426345B2, “Method of drug design” (Alchemia Limited, priority 2005, dated 2013)

Molecular target: T1, Human SST5 somatostatin receptor (Homo sapiens, UniProt P35346)
T1 construct: expressed in transfected cells; host or cells: HEK-293 EBNA cells (membranes)
Assay: Filter plate radio-ligand binding assay for SST5 receptor ([125I]SST-14 displacement)
Details: 3P library; for % SST5 radio-ligand binding displaced at conc 0.25: conc 0.25 μM; for % SST5 radio-ligand binding displaced at conc 1.0: conc 1.0 μM

T1 sequence (P35346 whole entry): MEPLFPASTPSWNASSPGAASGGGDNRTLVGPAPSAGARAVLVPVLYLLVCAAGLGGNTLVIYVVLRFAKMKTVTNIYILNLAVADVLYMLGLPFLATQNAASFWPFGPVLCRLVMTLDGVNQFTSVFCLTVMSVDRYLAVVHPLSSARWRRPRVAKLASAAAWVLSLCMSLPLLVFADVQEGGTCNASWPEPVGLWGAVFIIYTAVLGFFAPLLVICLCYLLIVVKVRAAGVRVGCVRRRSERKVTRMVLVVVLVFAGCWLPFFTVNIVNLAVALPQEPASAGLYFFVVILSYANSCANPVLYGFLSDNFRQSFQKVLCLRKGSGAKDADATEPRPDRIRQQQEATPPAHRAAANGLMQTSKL

SMILES	% SST5 radio-ligand binding displaced at conc 0.25	% SST5 radio-ligand binding displaced at conc 1.0	also measured
COC[C@H]1O[C@H](OCc2ccc3ccccc3c2)[C@H](NC(=O)C(C)CN)[C@@H](OCc2ccc3ccccc3c2)[C@@H]1O (some centres unmarked) [Compound 99]	− (% SST5 radio-ligand binding displaced at cone (μM) −<40%)	+ (% SST5 radio-ligand binding displaced at cone (μM) 60>+>40%)	–
COC[C@H]1O[C@H](OCc2ccc3ccccc3c2)[C@H](NC(=O)CC(C)N)[C@@H](OCc2ccc3ccccc3c2)[C@@H]1O (some centres unmarked) [Compound 100]	+ (% SST5 radio-ligand binding displaced at cone (μM) 60>+>40%)	++ (% SST5 radio-ligand binding displaced at conc (μM) >60%)	–
COC[C@H]1O[C@H](OCc2ccc3ccccc3c2)[C@H](NC(=O)C2CNC2)[C@@H](OCc2ccc3ccccc3c2)[C@@H]1O [Compound 101]	− (% SST5 radio-ligand binding displaced at cone (μM) −<40%)	+ (% SST5 radio-ligand binding displaced at cone (μM) 60>+>40%)	–
COC[C@H]1O[C@H](OCc2ccc3ccccc3c2)[C@H](NC(=O)CCN2CCCCC2)[C@@H](OCc2ccc3ccccc3c2)[C@@H]1O [Compound 102]	− (% SST5 radio-ligand binding displaced at cone (μM) −<40%)	− (% SST5 radio-ligand binding displaced at cone (μM) −<40%)	–
COC[C@H]1O[C@H](OCc2ccc3ccccc3c2)[C@H](NC(=O)C2CCCNC2)[C@@H](OCc2ccc3ccccc3c2)[C@@H]1O (some centres unmarked) [Compound 103]	+ (% SST5 radio-ligand binding displaced at cone (μM) 60>+>40%)	++ (% SST5 radio-ligand binding displaced at conc (μM) >60%)	–
COCC1OC(OCc2ccc3ccccc3c2)C(NC(=O)C2CCCCC2N)C(OCc2ccc3ccccc3c2)C1O (centres unmarked) [Compound 104]	− (% SST5 radio-ligand binding displaced at cone (μM) −<40%)	− (% SST5 radio-ligand binding displaced at cone (μM) −<40%)	–
COCC1OC(OCc2ccc3ccccc3c2)C(NC(=O)C2CCCCC2N)C(OCc2ccc3ccccc3c2)C1O (centres unmarked) [Compound 105]	− (% SST5 radio-ligand binding displaced at cone (μM) −<40%)	− (% SST5 radio-ligand binding displaced at cone (μM) −<40%)	–
COC[C@H]1O[C@H](OCc2ccc3ccccc3c2)[C@H](NC(=O)CCN(C)C)[C@@H](OCc2ccc3ccccc3c2)[C@@H]1O [Compound 106]	− (% SST5 radio-ligand binding displaced at cone (μM) −<40%)	− (% SST5 radio-ligand binding displaced at cone (μM) −<40%)	–
COC[C@H]1O[C@H](OCc2ccc3ccccc3c2)[C@H](NC(=O)CCN)[C@@H](OCc2cccc(Cl)c2)[C@@H]1O [Compound 107]	++ (% SST5 radio-ligand binding displaced at conc (μM) >60%)	++ (% SST5 radio-ligand binding displaced at conc (μM) >60%)	–
COC[C@H]1O[C@H](OCc2ccc3ccccc3c2)[C@H](NC(=O)CCN)[C@@H](OCc2cc(Cl)ccc2Cl)[C@@H]1O [Compound 108]	+ (% SST5 radio-ligand binding displaced at cone (μM) 60>+>40%)	++ (% SST5 radio-ligand binding displaced at conc (μM) >60%)	–
COC[C@H]1O[C@H](OCc2ccc3ccccc3c2)[C@H](NC(=O)CCN)[C@@H](OCc2ccccc2Cl)[C@@H]1O [Compound 109]	− (% SST5 radio-ligand binding displaced at cone (μM) −<40%)	++ (% SST5 radio-ligand binding displaced at conc (μM) >60%)	–
COC[C@H]1O[C@H](OCc2ccc3ccccc3c2)[C@H](NC(=O)CCN)[C@@H](OCc2cccc3cccnc23)[C@@H]1O [Compound 110]	++ (% SST5 radio-ligand binding displaced at conc (μM) >60%)	++ (% SST5 radio-ligand binding displaced at conc (μM) >60%)	–
COC[C@H]1O[C@H](OCc2ccc3ccccc3c2)[C@H](NC(=O)CCN)[C@@H](OCc2nc3ccccc3s2)[C@@H]1O [Compound 111]	− (% SST5 radio-ligand binding displaced at cone (μM) −<40%)	− (% SST5 radio-ligand binding displaced at cone (μM) −<40%)	–
COC[C@H]1O[C@H](OCc2ccc3ccccc3c2)[C@H](NC(=O)CCN)[C@@H](OCc2nccc3ccccc23)[C@@H]1O [Compound 112]	+ (% SST5 radio-ligand binding displaced at cone (μM) 60>+>40%)	++ (% SST5 radio-ligand binding displaced at conc (μM) >60%)	–
COC[C@H]1O[C@H](OCc2ccc3ccccc3c2)[C@H](NC(=O)CCN)[C@@H](OCc2ccc(Cl)c(Cl)c2)[C@@H]1O [Compound 113]	++ (% SST5 radio-ligand binding displaced at conc (μM) >60%)	++ (% SST5 radio-ligand binding displaced at conc (μM) >60%)	–
COC[C@H]1O[C@H](OCc2ccc3ccccc3c2)[C@H](NC(=O)CCN)[C@@H](OCc2cccc3ccccc23)[C@@H]1O [Compound 114]	++ (% SST5 radio-ligand binding displaced at conc (μM) >60%)	++ (% SST5 radio-ligand binding displaced at conc (μM) >60%)	–
COC[C@H]1O[C@H](OCc2ccc3ccccc3c2)[C@H](NC(=O)CCN)[C@@H](OCc2ccc(Cl)cc2Cl)[C@@H]1O [Compound 115]	+ (% SST5 radio-ligand binding displaced at cone (μM) 60>+>40%)	++ (% SST5 radio-ligand binding displaced at conc (μM) >60%)	–
COC[C@H]1O[C@H](OCc2ccc3ccccc3c2)[C@H](NC(=O)CCN)[C@@H](OCc2ccc3ccccc3n2)[C@@H]1O [Compound 116]	+ (% SST5 radio-ligand binding displaced at cone (μM) 60>+>40%)	++ (% SST5 radio-ligand binding displaced at conc (μM) >60%)	–
COC[C@H]1O[C@H](OCc2ccc3ccccc3c2)[C@H](NC(=O)CCN)[C@@H](OCc2cccc(Cl)c2Cl)[C@@H]1O [Compound 117]	++ (% SST5 radio-ligand binding displaced at conc (μM) >60%)	++ (% SST5 radio-ligand binding displaced at conc (μM) >60%)	–
COC[C@H]1O[C@H](OCc2ccc3ccccc3c2)[C@H](NC(=O)CCN)[C@@H](OCc2ccc(Oc3ccccc3)cc2)[C@@H]1O [Compound 118]	++ (% SST5 radio-ligand binding displaced at conc (μM) >60%)	++ (% SST5 radio-ligand binding displaced at conc (μM) >60%)	–
COC[C@H]1O[C@H](OCc2ccc3ccccc3c2)[C@H](NC(=O)CCCN)[C@@H](OC)[C@@H]1O [Compound 119]	–	–	% SST5 radio-ligand binding displaced at conc 50 (conc 50 μM): − (% SST5 radio-ligand binding displaced at cone (μM) −<40%); % SST5 radio-ligand binding displaced at conc 250 (conc 250 μM): + (% SST5 radio-ligand binding displaced at cone (μM) 60>+>40%); % SST5 radio-ligand binding displaced at conc 500 (conc 500 μM): ++ (% SST5 radio-ligand binding displaced at conc (μM) >60%)
COC[C@H]1O[C@H](OCc2ccc3ccccc3c2)[C@H](NC(=O)CCCN)[C@@H](OCc2ccc(Cl)cc2)[C@@H]1O [Compound 134]	–	++ (% SST5 radio-ligand binding displaced at conc (μM) >60%)	% SST5 radio-ligand binding displaced at conc 0.001 (conc 0.001 μM): + (% SST5 radio-ligand binding displaced at cone (μM) 60>+>40%); % SST5 radio-ligand binding displaced at conc 0.10 (conc 0.10 μM): ++ (% SST5 radio-ligand binding displaced at conc (μM) >60%); % SST5 radio-ligand binding displaced at conc 0.5 (conc 0.5 μM): ++ (% SST5 radio-ligand binding displaced at conc (μM) >60%); % SST5 radio-ligand binding displaced at conc 10 (conc 10 μM): ++ (% SST5 radio-ligand binding displaced at conc (μM) >60%)
NCCCC(=O)N[C@H]1[C@@H](OCc2ccc3ccccc3c2)O[C@H](COCc2ccc3ccccc3c2)[C@@H](O)[C@@H]1OCc1ccc(Cl)cc1 [Compound 135]	− (% SST5 radio-ligand binding displaced at cone (μM) −<40%)	++ (% SST5 radio-ligand binding displaced at conc (μM) >60%)	–
NCCCC(=O)N[C@H]1[C@@H](OCc2ccc3ccccc3c2)O[C@H](COCc2ccccc2)[C@@H](O)[C@@H]1OCc1ccc(Cl)cc1 [Compound 136]	− (% SST5 radio-ligand binding displaced at cone (μM) −<40%)	++ (% SST5 radio-ligand binding displaced at conc (μM) >60%)	–
NCCCC(=O)N[C@H]1[C@@H](OCc2ccc3ccccc3c2)O[C@H](COCc2ccc(Cl)cc2)[C@@H](O)[C@@H]1OCc1ccc(Cl)cc1 [Compound 137]	− (% SST5 radio-ligand binding displaced at cone (μM) −<40%)	++ (% SST5 radio-ligand binding displaced at conc (μM) >60%)	–
COC[C@H]1O[C@H](OCc2ccc3ccccc3c2)[C@H](NC(=O)C(N)CCN)[C@@H](OCc2ccc3ccccc3c2)[C@@H]1O (some centres unmarked) [Compound 138]	− (% SST5 radio-ligand binding displaced at cone (μM) −<40%)	− (% SST5 radio-ligand binding displaced at cone (μM) −<40%)	–
CNCCCC(=O)N[C@H]1[C@@H](OCc2ccc3ccccc3c2)O[C@H](COC)[C@@H](O)[C@@H]1OCc1ccc2ccccc2c1 [Compound 139]	− (% SST5 radio-ligand binding displaced at cone (μM) −<40%)	+ (% SST5 radio-ligand binding displaced at cone (μM) 60>+>40%)	–
COC[C@H]1O[C@H](OCc2ccc3ccccc3c2)[C@H](NC(=O)CCC(C)N)[C@@H](OCc2ccc3ccccc3c2)[C@@H]1O (some centres unmarked) [Compound 140]	++ (% SST5 radio-ligand binding displaced at conc (μM) >60%)	++ (% SST5 radio-ligand binding displaced at conc (μM) >60%)	–
COC[C@H]1O[C@H](OCc2ccc3ccccc3c2)[C@H](NC(=O)CCCN(C)C)[C@@H](OCc2ccc3ccccc3c2)[C@@H]1O [Compound 141]	− (% SST5 radio-ligand binding displaced at cone (μM) −<40%)	− (% SST5 radio-ligand binding displaced at cone (μM) −<40%)	–
